From US20030162777A1, “Novel N-acylated heterocycles” (Recordati S.A., priority 2001, published 2003)

Assays:
[1] = molecular target: T1, human 5HT1A-serotonergic receptor (Homo sapiens, UniProt P08908); test: Radioligand binding to recombinant 5-HT1A receptors; details: [3H]8-OH-DPAT 1 nM, membranes of HeLa cells with human 5-HT1A receptor; Ki from IC50 by Cheng & Prusoff; read-out: Binding affinity for 5HT1A receptors, Ki
T1 construct: expressed in transfected cells; host or cells: HeLa (human cell line), stably transfected; cell membranes used
T1 sequence (P08908 1-422): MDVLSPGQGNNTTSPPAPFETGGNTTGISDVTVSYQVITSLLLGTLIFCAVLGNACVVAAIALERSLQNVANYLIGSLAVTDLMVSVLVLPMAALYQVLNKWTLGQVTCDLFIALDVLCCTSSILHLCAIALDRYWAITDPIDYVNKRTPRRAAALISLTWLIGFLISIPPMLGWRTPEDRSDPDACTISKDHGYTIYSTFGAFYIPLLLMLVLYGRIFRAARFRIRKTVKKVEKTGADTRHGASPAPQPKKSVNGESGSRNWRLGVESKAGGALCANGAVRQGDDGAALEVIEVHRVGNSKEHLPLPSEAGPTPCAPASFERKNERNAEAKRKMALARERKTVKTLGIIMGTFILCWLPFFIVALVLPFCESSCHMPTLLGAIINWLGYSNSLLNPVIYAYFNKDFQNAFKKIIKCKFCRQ
Outline: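 Displacement of 1 nM [3H]8-OH-DPAT (30 min, 30 °C, Tris-HCl pH 7.4 with MgCl2 and pargyline) from recombinant human 5-HT1A in transfected HeLa membranes, stopped by filtration. Specific binding defined against 10 μM 5-HT; IC50 by nonlinear fitting, then Ki by Cheng–Prusoff.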

5-HT1A receptors = molecular target: T2, 5-HT1A receptors (Rattus norvegicus, UniProt P19327); test: Inhibition of stereotypy (rhythmic forepaw treading) induced by 8-OH-DPAT in rats (post-synaptic antagonism); assay type: in vivo; details: 1 mg/kg p.o.; for inhibition at 1 mg/kg: rat
T2 construct: from tissue; host or cells: whole animal: male Sprague-Dawley rats (post-synaptic 5-HT1A receptors)
T2 sequence (P19327 1-422): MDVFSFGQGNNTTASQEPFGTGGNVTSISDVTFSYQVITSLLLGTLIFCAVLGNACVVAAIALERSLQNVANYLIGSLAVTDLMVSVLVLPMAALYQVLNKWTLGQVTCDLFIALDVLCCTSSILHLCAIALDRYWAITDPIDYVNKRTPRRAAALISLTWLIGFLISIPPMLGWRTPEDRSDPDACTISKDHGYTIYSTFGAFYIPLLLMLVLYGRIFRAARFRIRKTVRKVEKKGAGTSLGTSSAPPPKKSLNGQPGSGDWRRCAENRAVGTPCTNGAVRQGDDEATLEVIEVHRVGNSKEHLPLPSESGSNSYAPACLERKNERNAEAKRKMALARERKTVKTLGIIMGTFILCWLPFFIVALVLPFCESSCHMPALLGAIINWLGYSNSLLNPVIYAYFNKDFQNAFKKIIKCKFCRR
Description: The inhibitory effect of 5-HT1A-receptor antagonists on stereotyped forepaw treading induced in rats by subcutaneous injection of 8-OH-DPAT was evaluated by the method of Tricklebank (Tricklebanket al., Eur. J. Pharmacol., 117: 15, 1985) with minor modifications as described below.
Male Sprague-Dawley rats [Crl: CD° (SD) BR] weighing 150-175 g from Charles River Italia were used. The animals were housed with free access to food and water and maintained on a forced 12-hour-light/12-hour-dark cycle at 22-24° C. of temperature. On the day of the experiment, the rats were placed singly in clear plastic containers, 10-15 minutes before administration of the vehicle or compounds to be tested. For evaluation of antagonistic activity after oral administration, the compounds were administered 0.5, 1 and 4 hours before induction of stereotypy by 8-OH-DPAT (1 mg/kg subcutaneously). Observation sessions lasted 30 seconds and began 3 minutes after 8-OH-DPAT treatment and were repeated every 3 minutes over a period of 15 minutes.
The appearance of the symptom induced by postsynaptic stimulation of 5-HT1A receptors was noted, and the intensity was scored using an intensity scale in which: 0=absent, 1=equivocal, 2=present and 3=intense. Behavioural scores for treated rats were accumulated throughout the observation time (5 observation periods) and expressed as mean values of 4 rats/dose. Change in mean values of treated animals in comparison with control (vehicle) group, expressed as per-cent inhibition, was used in order to quantify the antagonistic activity.

Ki [1]: 3.3 nM
inhibition at 1 mg/kg (5-HT1A receptors; 0.5 h before 8-OH-DPAT (1 mg/kg s.c.)): 91%
inhibition at 1 mg/kg (5-HT1A receptors; 1 h before 8-OH-DPAT (1 mg/kg s.c.)): 91%
inhibition at 1 mg/kg (5-HT1A receptors; 4 h before 8-OH-DPAT (1 mg/kg s.c.)): 96%
SMILES: O=C(C1CCCCC1)N1c2ccccc2CCC1CN1CCN(c2cccc3[nH]ccc23)CC1 (racemic) [Example 1, (±)1-(1-cyclohexanecarbonyl-1,2,3,4-tetrahydroquinoline-2-ylmethyl)-4-(4-indolyl)piperazine]
post-synaptic 5-HT1A-receptor antagonist activity (in words) (5-HT1A receptors; rats): significant and long-lasting post-synaptic 5-HT1A-receptor antagonist activity
